Source: patent publication US20080089851A1, “Brown Algae Cell Lyophilisate, Method For The Obtention Thereof” (BIOTECHMARINE, priority 2005, published 2008)

How the values were obtained:
[1] = system: microsomes of human keratinocytes; assay: Transport of proteins (albumin), direct treatment of isolated microsomes; type: biochemical; details: for Capture of albumin-FITC: ND 6 mg/ml
Description: 7.1—Assessment of the Rate of Transport of Macromolecules (Glucids, Lipids and Proteins) in a System of Isolated Microsomes. Direct Effect of the BB Product on Isolated Microsomes: The microsomes of human keratinocytes form a membrane fraction obtained by high-speed differential centrifugation of a cell homogenate. This preparation of microsomes requires the addition of exogenous cofactors such as NADPH. 7.1.3—Transport of Proteins (Albumin) The assay was performed in triplicate after the direct treatment of microsomes. • Charge 1: negative control not receiving any product • Charge 2: positive control (Nocodazole, 6 mg/ml) • Charge 3-5: treated receiving the investigated product (3 concentrations) • Charge 6-8: treated with Nocodazole 6 mg/ml, and with the investigated product (3 concentrations) The obtained microsomes from human keratinocytes in culture were rinsed 3 times with a buffer, afterwards pre-incubated in 1 ml of the same buffer for 30 minutes at 3° C. This solution was subsequently discarded and the microsomes were placed into the HBSS buffer containing albumin-FITC with stirring in a water bath at 37° C. The capture of albumin is stopped by addition of a Ringer's solution containing 122.5 mM NaCl; 5.4 mM KCl; 1.2 mM CaCl2; 0.8 mM MgCl2; 0.8 Na2HPO4; 0.2 NaHPO4; 5.5 mM glucose; 10 mM HEPES, pH 7,4. Afterwards, the microsomes were treated with Triton X-100 at (0.1% v/v in 3-(N-morpholino) propanesulfonic acid 20 mM, pH 7.4). The fluorescence was quantified with a spectrophotometer (excitation 480 nm: emission 520 nm). The kinetics of incubation was performed between 30 and 120 seconds. The treatment of microsomes with the BB product alone or in the presence of Nocodazole (ND) were carried out at the same time as the introduction of albumin-FITC into the incubation medium. The assay of proteins was performed following the BRADFORD method. The increase in absorbance at 595 nm is proportional to the concentration of proteins measured with a spectrophotometer.

[2] = system: human keratinocytes in senescence; assay: Transport of proteins (albumin), human keratinocytes in senescence; type: cell-based; details: for Capture of albumin-FITC: ND 6 mg/ml
Description: The obtained microsomes from human keratinocytes in culture were rinsed 3 times with a buffer, afterwards pre-incubated in 1 ml of the same buffer for 30 minutes at 3° C. This solution was subsequently discarded and the microsomes were placed into the HBSS buffer containing albumin-FITC with stirring in a water bath at 37° C. The capture of albumin is stopped by addition of a Ringer's solution containing 122.5 mM NaCl; 5.4 mM KCl; 1.2 mM CaCl2; 0.8 mM MgCl2; 0.8 Na2HPO4; 0.2 NaHPO4; 5.5 mM glucose; 10 mM HEPES, pH 7,4. Afterwards, the microsomes were treated with Triton X-100 at (0.1% v/v in 3-(N-morpholino) propanesulfonic acid 20 mM, pH 7.4). The fluorescence was quantified with a spectrophotometer (excitation 480 nm: emission 520 nm). The kinetics of incubation was performed between 30 and 120 seconds.
7.3—Assessment of the Rate of Transport of Macromolecules at the Level of Human Keratinocytes in Senescence
The senescence is a phenomenon of cellular aging, where the cells are arrested in the phase G1 of the cell cycle and never enter the synthesis phase leading to the cell division. Senescent cells are characterized by their slow metabolism at synthesis and transport of macromolecules levels.
The cells in culture deprived of serum stop their growth, but continue to progress through the cell cycle until they reach the phase G1.
The applied method allowed to obtain, from a human skin biopsy, primary cultures of keratinocytes. The assays were performed on keratinocytes, between the 8th and the 10th passage, in order to ensure the presence of senescent cells at control cells level.
The keratinocytes were seeded in multiwell plates (6 wells) at a rate of 10^5 cells per well in 3 ml of culture medium […] supplemented with EGF, hydrocortisone, insulin and gentamicyn. Afterwards they are maintained for 5 days in incubator under CO2.
7.3.3—Transport of Proteins (Albumin)
The assay was carried out in triplicate on human keratinocytes in senescence. • Charge 1: negative control not receiving any product. • Charge 2: positive control (Nocodazole, 6 mg/ml) • Charge 3-5: treated receiving the investigated product (3 concentrations) • Charge 6-8: treated with Nocodazole, 6 mg/ml, and the investigated product (3 concentrations)
The treatment of keratinocytes with the BB product in the presence and absence of Nocodazole, 6 mg/ml, was carried out for 120 minutes at 37° C. The membrane microsomes were separated by differential centrifugation.
The same protocol of capture of albumin-FITC was applied to determine the rate of transport of albumin (cf. 6.1.3)

[3] = system: normal human keratinocytes; assay: Transport of proteins (albumin), normal human keratinocytes; type: cell-based; details: for Capture of albumin-FITC: S.D. 6 mg/ml
Description: The obtained microsomes from human keratinocytes in culture were rinsed 3 times with a buffer, afterwards pre-incubated in 1 ml of the same buffer for 30 minutes at 3° C. This solution was subsequently discarded and the microsomes were placed into the HBSS buffer containing albumin-FITC with stirring in a water bath at 37° C. The capture of albumin is stopped by addition of a Ringer's solution containing 122.5 mM NaCl; 5.4 mM KCl; 1.2 mM CaCl2; 0.8 mM MgCl2; 0.8 Na2HPO4; 0.2 NaHPO4; 5.5 mM glucose; 10 mM HEPES, pH 7,4. Afterwards, the microsomes were treated with Triton X-100 at (0.1% v/v in 3-(N-morpholino) propanesulfonic acid 20 mM, pH 7.4). The fluorescence was quantified with a spectrophotometer (excitation 480 nm: emission 520 nm). The kinetics of incubation was performed between 30 and 120 seconds. 7.2—Assessment of the Rate of Transport of Macromolecules at the Level of Normal Human Keratinocytes The applied method was that of explants allowing to obtain, from a biopsy of human skin, keratinocytes in primary cultures. The assays were carried out on keratinocytes between the 2nd and the 4th passage in order to ensure a reproductibility between the different experiences. The keratinocytes were divided into multiwell plates (6 wells) at a rate of 10^5 cells per well in 1 ml of culture medium […] supplemented with insulin and hydrocortisone. The cells were incubated in the presence and absence of the investigated product. 7.2.3—Transport of Proteins (Albumin) The assay was carried out in triplicate on normal human keratinocytes in culture. • Charge 1: negative control not receiving any product. • Charge 2: positive control (Nocodazole, 6 mg/ml) • Charge 3-5: treated receiving the investigated product (3 concentrations) • Charge 6-8: treated with Nocodazole, 6 mg/ml, and with the investigated product (3 concentrations) The treatment of keratinocytes with the BB product in the presence and absence of Nocodazole, 6 mg/ml, was carried out for 120 minutes at 37° C. The membrane microsomes were separated by differential centrifugation. The same protocol of capture of albumin-FITC was used for the determination of the rate of transport of albumin (cf. 3.1.4.2)

For `COC(=O)Nc1nc2ccc(C(=O)c3cccs3)cc2[nH]1` [ND, Nocodazole], the “Capture of albumin-FITC” value ([1]; 30 s) was 0.11 μg/mg proteins, the “Capture of albumin-FITC” value ([1]; 60 s) was 0.29 μg/mg proteins and the “Capture of albumin-FITC” value ([1]; 90 s) was 0.34 μg/mg proteins. For the same compound, the “Capture of albumin-FITC” value ([1]; 120 s) was 0.43 μg/mg proteins, the “rate of transport of proteins (in words)” value ([1]; Nocodazole 6 mg/ml alone) was “strongly inhibits” and the “Capture of albumin-FITC” value ([2]; 30 s) was 0.06 μg/mg of proteins. The “Capture of albumin-FITC” value ([2]; 60 s) was 0.11 μg/mg of proteins, the “Capture of albumin-FITC” value ([2]; 90 s) was 0.19 μg/mg of proteins and the “Capture of albumin-FITC” value ([2]; 120 s) was 0.3 μg/mg of proteins. The “rate of transport of proteins (in words)” value ([2]; Nocodazole 6 mg/ml alone) was “inhibits”, the “rate of transport of proteins (in words)” value ([3]; Nocodazole 6 mg/ml alone) was “inhibits” and the “Capture of albumin-FITC” value ([3]; 30 s) was 0.09 μg/mg proteins. For the same compound, the “Capture of albumin-FITC” value ([3]; 60 s) was 0.22 μg/mg proteins, the “Capture of albumin-FITC” value ([3]; 90 s) was 0.26 μg/mg proteins and the “Capture of albumin-FITC” value ([3]; 120 s) was 0.37 μg/mg proteins.
